± gives the expanded uncertainty stated by the source.
Assay: molar heat capacity at constant pressure; mn = molality of the nth substance listed, in mol/kg
Conditions: 101 kPa, Liquid, Large sample (1 g) DSC

CCCCCCCC[N+](C)(C)C.[Br-] [octyl trimethyl ammonium bromide] + O
molar heat capacity at constant pressure [J/K/mol]
Conditions | 298.15 K | 303.15 K | 308.15 K | 313.15 K
m1 = 0.00997 | 75.46 ± 1.3 | 75.44 ± 1.3 | 75.44 ± 1.3 | 75.45 ± 1.3
m1 = 0.01501 | 75.58 ± 1.3 | 75.55 ± 1.3 | 75.54 ± 1.3 | 75.55 ± 1.3
m1 = 0.025 | 75.69 ± 1.3 | 75.66 ± 1.3 | 75.65 ± 1.3 | 75.66 ± 1.3
m1 = 0.04 | 75.85 ± 1.3 | 75.83 ± 1.3 | 75.82 ± 1.3 | 75.83 ± 1.3
m1 = 0.05 | 75.95 ± 1.3 | 75.93 ± 1.3 | 75.92 ± 1.3 | 75.93 ± 1.3
m1 = 0.07502 | 76.27 ± 1.3 | 76.24 ± 1.3 | 76.23 ± 1.3 | 76.25 ± 1.3
m1 = 0.08 | 76.32 ± 1.3 | 76.29 ± 1.3 | 76.29 ± 1.3 | 76.3 ± 1.3
m1 = 0.08509 | 76.4 ± 1.3 | 76.38 ± 1.3 | 76.36 ± 1.3 | 76.36 ± 1.3
m1 = 0.09999 | 76.54 ± 1.3 | 76.51 ± 1.3 | 76.5 ± 1.3 | 76.51 ± 1.3
m1 = 0.1202 | 76.79 ± 1.3 | 76.74 ± 1.3 | 76.74 ± 1.3 | 76.77 ± 1.3
m1 = 0.125 | 76.85 ± 1.3 | 76.82 ± 1.3 | 76.81 ± 1.3 | 76.81 ± 1.3
m1 = 0.1397 | 76.98 ± 1.3 | 76.95 ± 1.3 | 76.93 ± 1.3 | 76.93 ± 1.3
m1 = 0.15 | 77.1 ± 1.3 | 77.08 ± 1.3 | 77.07 ± 1.3 | 77.08 ± 1.3
m1 = 0.16 | 77.21 ± 1.3 | 77.19 ± 1.3 | 77.17 ± 1.3 | 77.15 ± 1.3
m1 = 0.175 | 77.41 ± 1.3 | 77.38 ± 1.3 | 77.37 ± 1.3 | 77.37 ± 1.3
m1 = 0.1799 | 77.47 ± 1.3 | 77.44 ± 1.3 | 77.43 ± 1.3 | 77.42 ± 1.3
m1 = 0.1898 | 77.59 ± 1.3 | 77.55 ± 1.3 | 77.54 ± 1.3 | 77.53 ± 1.3
m1 = 0.2 | 77.66 ± 1.3 | 77.63 ± 1.3 | 77.61 ± 1.3 | 77.61 ± 1.3
m1 = 0.2197 | 77.9 ± 1.3 | 77.87 ± 1.3 | 77.85 ± 1.3 | 77.83 ± 1.3
m1 = 0.24 | 78.15 ± 1.4 | 78.11 ± 1.4 | 78.09 ± 1.4 | 78.08 ± 1.4
m1 = 0.25 | 78.24 ± 1.4 | 78.2 ± 1.4 | 78.18 ± 1.4 | 78.17 ± 1.4
m1 = 0.2601 | 78.37 ± 1.4 | 78.32 ± 1.4 | 78.29 ± 1.4 | 78.28 ± 1.4
m1 = 0.2751 | 78.52 ± 1.4 | 78.47 ± 1.4 | 78.44 ± 1.4 | 78.42 ± 1.4
m1 = 0.2801 | 78.66 ± 1.4 | 78.63 ± 1.4 | 78.59 ± 1.4 | 78.56 ± 1.4
m1 = 0.2999 | 78.81 ± 1.4 | 78.74 ± 1.4 | 78.69 ± 1.4 | 78.67 ± 1.4
m1 = 0.3251 | 79.06 ± 1.4 | 78.99 ± 1.4 | 78.94 ± 1.4 | 78.91 ± 1.4
m1 = 0.3497 | 79.28 ± 1.4 | 79.2 ± 1.4 | 79.15 ± 1.4 | 79.13 ± 1.4
m1 = 0.3749 | 79.51 ± 1.4 | 79.43 ± 1.4 | 79.39 ± 1.4 | 79.37 ± 1.4
m1 = 0.4 | 79.68 ± 1.4 | 79.61 ± 1.4 | 79.57 ± 1.4 | 79.56 ± 1.4
m1 = 0.4248 | 79.91 ± 1.4 | 79.85 ± 1.4 | 79.83 ± 1.4 | 79.83 ± 1.4
m1 = 0.4742 | 80.26 ± 1.4 | 80.22 ± 1.4 | 80.2 ± 1.4 | 80.2 ± 1.4
m1 = 0.5499 | 80.8 ± 1.4 | 80.74 ± 1.4 | 80.73 ± 1.4 | 80.77 ± 1.4
m1 = 0.6251 | 81.38 ± 1.4 | 81.36 ± 1.4 | 81.37 ± 1.4 | 81.41 ± 1.4
m1 = 0.7072 | 81.85 ± 1.4 | 81.84 ± 1.4 | 81.87 ± 1.4 | 81.93 ± 1.4
m1 = 1.277 | 85.58 ± 1.5 | 85.68 ± 1.5 | 85.8 ± 1.5 | 85.96 ± 1.5
m1 = 2.09 | 90.58 ± 1.6 | 90.8 ± 1.6 | 91.05 ± 1.6 | 91.33 ± 1.6

CCCCCC[N+](C)(C)C.[Br-] [hexyltrimethylammonium bromide] + O
molar heat capacity at constant pressure [J/K/mol]
Conditions | 298.15 K | 303.15 K | 308.15 K | 313.15 K
m1 = 0.01002 | 75.42 ± 1.3 | 75.39 ± 1.3 | 75.38 ± 1.3 | 75.39 ± 1.3
m1 = 0.02406 | 75.57 ± 1.3 | 75.55 ± 1.3 | 75.54 ± 1.3 | 75.55 ± 1.3
m1 = 0.03 | 75.65 ± 1.3 | 75.62 ± 1.3 | 75.61 ± 1.3 | 75.63 ± 1.3
m1 = 0.03989 | 75.72 ± 1.3 | 75.7 ± 1.3 | 75.69 ± 1.3 | 75.69 ± 1.3
m1 = 0.045 | 75.7 ± 1.3 | 75.68 ± 1.3 | 75.67 ± 1.3 | 75.7 ± 1.3
m1 = 0.04985 | 75.78 ± 1.3 | 75.76 ± 1.3 | 75.75 ± 1.3 | 75.76 ± 1.3
m1 = 0.05497 | 75.82 ± 1.3 | 75.79 ± 1.3 | 75.78 ± 1.3 | 75.8 ± 1.3
m1 = 0.05996 | 75.89 ± 1.3 | 75.86 ± 1.3 | 75.86 ± 1.3 | 75.87 ± 1.3
m1 = 0.07507 | 75.97 ± 1.3 | 75.95 ± 1.3 | 75.94 ± 1.3 | 75.95 ± 1.3
m1 = 0.07976 | 76.04 ± 1.3 | 76.02 ± 1.3 | 76.02 ± 1.3 | 76.02 ± 1.3
m1 = 0.09 | 76.13 ± 1.3 | 76.11 ± 1.3 | 76.11 ± 1.3 | 76.12 ± 1.3
m1 = 0.09694 | 76.14 ± 1.3 | 76.12 ± 1.3 | 76.11 ± 1.3 | 76.13 ± 1.3
m1 = 0.11 | 76.31 ± 1.3 | 76.29 ± 1.3 | 76.28 ± 1.3 | 76.3 ± 1.3
m1 = 0.1199 | 76.37 ± 1.3 | 76.35 ± 1.3 | 76.35 ± 1.3 | 76.36 ± 1.3
m1 = 0.1251 | 76.39 ± 1.3 | 76.36 ± 1.3 | 76.36 ± 1.3 | 76.38 ± 1.3
m1 = 0.1301 | 76.52 ± 1.3 | 76.51 ± 1.3 | 76.51 ± 1.3 | 76.52 ± 1.3
m1 = 0.14 | 76.58 ± 1.3 | 76.56 ± 1.3 | 76.55 ± 1.3 | 76.57 ± 1.3
m1 = 0.1502 | 76.59 ± 1.3 | 76.57 ± 1.3 | 76.57 ± 1.3 | 76.58 ± 1.3
m1 = 0.1751 | 76.79 ± 1.3 | 76.78 ± 1.3 | 76.77 ± 1.3 | 76.78 ± 1.3
m1 = 0.1993 | 77 ± 1.3 | 76.98 ± 1.3 | 76.98 ± 1.3 | 77 ± 1.3
m1 = 0.2248 | 77.21 ± 1.3 | 77.19 ± 1.3 | 77.19 ± 1.3 | 77.21 ± 1.3
m1 = 0.2507 | 77.41 ± 1.3 | 77.4 ± 1.3 | 77.41 ± 1.3 | 77.43 ± 1.3
m1 = 0.2757 | 77.59 ± 1.3 | 77.58 ± 1.3 | 77.59 ± 1.3 | 77.61 ± 1.3
m1 = 0.2801 | 77.65 ± 1.3 | 77.64 ± 1.3 | 77.66 ± 1.3 | 77.71 ± 1.3
m1 = 0.2851 | 77.71 ± 1.3 | 77.7 ± 1.3 | 77.69 ± 1.3 | 77.71 ± 1.3
m1 = 0.2996 | 77.82 ± 1.3 | 77.8 ± 1.3 | 77.8 ± 1.3 | 77.83 ± 1.3
m1 = 0.3222 | 78.01 ± 1.4 | 78 ± 1.4 | 78.01 ± 1.4 | 78.06 ± 1.4
m1 = 0.3311 | 78.06 ± 1.4 | 78.05 ± 1.4 | 78.06 ± 1.4 | 78.09 ± 1.4
m1 = 0.3512 | 78.21 ± 1.4 | 78.21 ± 1.4 | 78.21 ± 1.4 | 78.23 ± 1.4
m1 = 0.4002 | 78.59 ± 1.4 | 78.59 ± 1.4 | 78.6 ± 1.4 | 78.64 ± 1.4
m1 = 0.4258 | 78.85 ± 1.4 | 78.84 ± 1.4 | 78.84 ± 1.4 | 78.86 ± 1.4
m1 = 0.4503 | 79 ± 1.4 | 78.99 ± 1.4 | 79 ± 1.4 | 79.02 ± 1.4
m1 = 0.4998 | 79.37 ± 1.4 | 79.37 ± 1.4 | 79.38 ± 1.4 | 79.41 ± 1.4
m1 = 0.5263 | 79.58 ± 1.4 | 79.57 ± 1.4 | 79.58 ± 1.4 | 79.61 ± 1.4
m1 = 0.5513 | 79.72 ± 1.4 | 79.73 ± 1.4 | 79.75 ± 1.4 | 79.77 ± 1.4
m1 = 0.5742 | 79.94 ± 1.4 | 79.95 ± 1.4 | 79.96 ± 1.4 | 79.98 ± 1.4
m1 = 0.6007 | 80.15 ± 1.4 | 80.16 ± 1.4 | 80.18 ± 1.4 | 80.22 ± 1.4
m1 = 0.6516 | 80.55 ± 1.4 | 80.56 ± 1.4 | 80.57 ± 1.4 | 80.59 ± 1.4
m1 = 0.701 | 80.9 ± 1.4 | 80.91 ± 1.4 | 80.92 ± 1.4 | 80.95 ± 1.4
m1 = 0.7517 | 81.28 ± 1.4 | 81.29 ± 1.4 | 81.31 ± 1.4 | 81.33 ± 1.4
m1 = 0.8016 | 81.66 ± 1.4 | 81.67 ± 1.4 | 81.68 ± 1.4 | 81.71 ± 1.4
m1 = 0.8842 | 82.28 ± 1.4 | 82.29 ± 1.4 | 82.31 ± 1.4 | 82.33 ± 1.4
m1 = 0.9496 | 82.77 ± 1.4 | 82.78 ± 1.4 | 82.79 ± 1.4 | 82.81 ± 1.4
m1 = 0.9915 | 83.01 ± 1.4 | 83.02 ± 1.4 | 83.05 ± 1.4 | 83.08 ± 1.4

— the NIST ThermoML archive (doi:10.1016/j.fluid.2013.08.005)
